Results published in patent US6025340A, “Surface expression of enzyme in gene directed prodrug therapy” (priority 1994, dated 2000).

Tests used:
[1] = tested on: MDA MB361 transfected cells (CPG2-expressing line and control line); assay: Sulphorhodamine B cytotoxicity assay; type: cell-based; details: 4 days incubation
Protocol: Prodrug 2 was also assayed (FIG. 12) in the MDA MB361 transfected cells obtained in Preparative Example 3 using a sulphorhodamine B cytotoxicity assay which was conducted by plating 5000 cells per well in a 96-well microtitre dish. The cells were plated in 160 μl of DMEM medium. After incubation over night the drug or appropriate controls made up in DMEM containing 5% serum was added to the wells in a 40 μl volume. The cells were incubated for 4 days under standard conditions. Following this the medium was removed and the cells treated with ice-cold 10% TCA (trichloroacetic acid) on ice for about 30 minutes. The TCA was removed and the cells rinsed for adding 18 μl of 0.4% sulphorhodamine B (SRB) which was left to stain the cells for 10 minutes. Following staining the cells were rinsed in TCA and air dried before addition of 18 μl of 10 mM TRIS and cell viability was then read. […] (see FIG. 12)

[2] = tested on: NIH3T3 cell line #3 constitutively expressing β-galactosidase; assay: Cell survival by [3H]-thymidine incorporation, stable control line; type: cell-based, murine; details: increasing concentrations, 60 minutes at 37° C.
Protocol: (§1) Stable cell lines were prepared with NIH3T3 cells to constitutively express CPG2 (surface) LNLL, or as a control the lacZ gene product (β-galactosidase). In order to do this, NIH3T3 cells were transfected with pMCEF-CPG2(surface)LNLL or pMCEFlacZ as described in Comparative Example 1 above, and two days after transfection, the cells were plated at low density into medium containing G418 at 1 mg/ml. Colonies coming from single cells could be observed about two weeks later and these were cloned and grown up individually. The expression of CPG2(surface) was determined by immunoprotein blotting of […] of cell extract (extracted as described in the Comparative Example above) from each of the G418 resistant colonies with the antiserum from the Comparative Example 1 above. The cell line #16 which expresses high levels of CPG2(surface)LNLL (FIG. 6A) and cell line #3, which expresses the β-galactosidase (see below) were selected for further investigation. […] 250 μl of 1 MNa2 CO3 was added to the sample and the OD420 was measured.
(§2) Cell lines #3 and #16 obtained in Preparative Example 2 were tested for cytotoxicity with the CMDA pro-drug. […] After a further 6 hour incubation, 10% of the cells were re-plated into 24 well dishes, incubated for a further 5 days and cell survival was determined by [^3 H]-thymidine incorporation.

[3] = tested on: MDA MB 361 cell line M38 constitutively expressing CPG2(surface)QQQ; assay: Cell viability by [3H]-thymidine incorporation, stable line; type: cell-based; details: for sensitivity to prodrug compared with line M2: 60 minutes at 37° C., viability after 5 days
Protocol: (§3) CPG2(surface) QQQ was cloned into pMCEF-Plink as an Nco1/Xba fragment; this plasmid is called pMCEFCPG2(surface)QQQ. MDA361B cells were transfected with either pMCEFCPG2(surface)QQQ, or with pMCEFlacZ according to the protocol described in the Comparative Example and were treated as for the NIH3T3 cells to generate G418 colonies. The G418 resistant colonies were tested for CPG2(surface)QQQ expression by immunoprotein blot analysis, as described for the NIH3T3 cells. From these analyses, two cell lines, M2 which expresses β-galactosidase and M38, which expresses CPG2(surface)QQQ were selected for further testing. […] The expression of β-galactosidase by line M2 was confirmed by enzymatic assay (FIG. 10B, lane 1 contains M2 extract, lane 2 a control extract).
These cell lines were tested for sensitivity to the CMDA prodrug and prodrug 2. 1×10^5 cells were plated into each well of a 24 well plate. The cells were incubated for 48 hours at 37° C. They were then incubated in increasing concentrations of either CMDA or prodrug 2 for 60 minutes at 37° C., washed twice, returned to medium and incubated for a further 5 days. The viability of the cells was then determined by using [^3 H]-thymidine incorporation.
(§4) In order to examine the bystander effect with the MDA MB 361 cells constitutively expressing CPG2(surface)QQQ, the M38 cell line, the M2 cell line, or a 1:10 mixture of M38: M2 cells were plated (1×10^4 cells) into the wells of a 24 well plate, and incubated for 48 hours. The cells were then treated with varying concentrations of prodrug 2 for 60 min, washed twice with fresh medium and incubated in fresh medium for 5 days. The survival of the cells was then determined by [^3 H-methyl] thymidine incorporation.

[4] = tested on: MDA MB 361 cell line M2 constitutively expressing β-galactosidase; assay: Cell viability by [3H]-thymidine incorporation, stable control line; type: cell-based
Protocol: as §3
These cell lines were tested for sensitivity to the CMDA prodrug and prodrug 2. 1×10^5 cells were plated into each well of a 24 well plate. The cells were incubated for 48 hours at 37° C. […] The viability of the cells was then determined by using [^3 H]-thymidine incorporation.
In order to examine the bystander effect with the MDA MB 361 cells constitutively expressing CPG2(surface)QQQ, the M38 cell line, the M2 cell line, or a 1:10 mixture of M38: M2 cells were plated (1×10^4 cells) into the wells of a 24 well plate, and incubated for 48 hours. […] The survival of the cells was then determined by [^3 H-methyl] thymidine incorporation.

[5] = tested on: NIH3T3 cells transfected with MLVCPG2(surface); assay: Cytotoxicity assay, [3H]-thymidine incorporation, transiently transfected cells; type: cell-based, murine; details: CMDA 0.5 mM
Protocol: (§5) The ability of CPG2(surface) to kill NIH3T3 cells in the presence of the CMDA pro-drug was examined. Three sets of NIH3T3 cells were prepared, each of which contained one dish of cells transfected with MLVβplink, one dish of cells transfected with MLVCPG2(surface) or one dish of cells transfected with MLVCPG2(surface)LNLL. The cells were incubated for 42 hours following the transfection and then set 1 was incubated in the presence of prodrug vehicle (5 mM Hepes, 0.5% v/v DMSO, pH7.0; final concentrations) for 24 hours. Set 2 was incubated in the presence of the CMDA prodrug (0.5 mM final concentration) for 3 hours. Set 3 was incubated in CMDA (0.5 mM) for 24 hours. Following prodrug treatment, the cells were washed three times with 5 ml 10% FCS/ DMEM and sets 1 and 3 incubted in fresh medium for a further 24 hours, set 2 for 45 hours. The cells were then passaged into fresh culture dishes, seeded at 1×10^5 cells/ 35 mm dish in 2 ml FCS/ DMEM. After a further 72 hour incubation cell growth was assessed by [3H]-thymidine incorporation.
(§6) For thymidine incorporaion, 1 μCi of [methyl-^3 H]thymidine was added to each well (2 ml medium) and incubated for 5 hours at 37° C. The cells were washed twice with PBSA (4° C.) and fixed with 5% w/v trichloroacetic acid (TCA) in water at 4° C. for 20 minutes. The TCA was removed and the cells washed twice with 2 ml methanol and air dried. The DNA was extracted with 1 ml 0.1 M NaOH, 1% SDS at room temperature for 5 minutes, added to 4 ml scintilation fluid and the incorporated thymidine determined by scintillation counting.

[6] = tested on: NIH3T3 cells transfected with MLVCPG2(surface)LNLL; assay: as above; type: cell-based, murine; details: CMDA 0.5 mM
Protocol: as §5, §6

[7] = tested on: NIH3T3 cells transfected with MLVβplink; assay: Cytotoxicity assay, [3H]-thymidine incorporation, transiently transfected control cells; type: cell-based, murine; details: CMDA 0.5 mM for 3 hours or 24 hours
Protocol: as §5
For thymidine incorporaion, 1 μCi of [methyl-^3 H]thymidine was added to each well (2 ml medium) and incubated for 5 hours at 37° C. […] The DNA was extracted with 1 ml 0.1 M NaOH, 1% SDS at room temperature for 5 minutes, added to 4 ml scintilation fluid and the incorporated thymidine determined by scintillation counting.

[8] = tested on: mixture of NIH3T3 cell lines #3 and #16; assay: Bystander effect, mixed cell lines, [3H]-thymidine incorporation; type: cell-based, murine; details: 40% of the cells expressing CPG2(surface)LNLL; 250 μM or 1000 μM CMDA for 60 minutes
Protocol: Cell lines #3 and #16 obtained in Preparative Example 2 were tested for cytotoxicity with the CMDA pro-drug. 1×10^5 cells were plated into each well of 24 well dishes, incubated for 40 hours and then treated with increasing concentrations of CMDA at 37° C. for 60 minutes. After a further 6 hour incubation, 10% of the cells were re-plated into 24 well dishes, incubated for a further 5 days and cell survival was determined by [^3 H]-thymidine incorporation.
The bystander effect was determined by mixing cell lines #3 and #16 obtained in Preparative Example 2 at a variety of concentrations as indicated and a total of 1×10^5 cells were plated per well in 24 well plates. The cells were incubated and treated as described in Example 3, except that they were treated with either 250 μM or 1000 μM CMDA for 60 minutes as indicated. The cell survival was determined as in Example 3.

[9] = tested on: NIH3T3 cell line #16 constitutively expressing CPG2(surface)LNLL; assay: Cell survival by [3H]-thymidine incorporation, stable line; type: cell-based, murine; details: Mus musculus, 60 minutes treatment at 37° C., survival after 5 days
Protocol: as §1, §2

[10] = tested on: 1:10 mixture of M38:M2 MDA MB 361 cells; assay: Bystander effect, mixed cell lines, [3H]-thymidine incorporation; type: cell-based; details: Example 7
Protocol: as §4

Compound | difference in susceptibility, CPG2-expressing line versus control line [1] | sensitivity to prodrug (cell survival) [2] | sensitivity to prodrug compared with line M2 [3] | sensitivity to prodrug ([4]; 60 minutes at 37° C., up to highest concentration tested) | effect of prodrug treatment on cell growth ([5]; 3 hour prodrug treatment) | inhibition at 500 µM ([5]; Mus musculus, NIH3T3, 24 hour prodrug treatment, read-out: inhibition of cell growth) [%] | effect of prodrug treatment on cell growth ([6]; 24 hour prodrug treatment) | inhibition at 500 µM ([6]; Mus musculus, NIH3T3, 3 hour prodrug treatment, read-out: reduction in cell growth) [%] | effect of prodrug treatment on growth rate [7] | cells killed [8] | IC50 [9] [µM] | fold more sensitive, M38 cells versus M2 cells ([3]; Example 5, 1×10^5 cells per well, 60 minutes treatment) [fold] | IC50 ([4]; Example 7, 60 min treatment, survival after 5 days) [µM] | fold change of IC50 in 1:10 mixture versus M2 [10] [fold]
[NH2][Pt]([NH2])([Cl])[Cl] [CDDP, Cisplatin] | not found to be any difference | – | – | – | – | – | – | – | – | – | – | – | – | –
CS(=O)(=O)OCCN(CCCl)c1ccc(C(=O)N[C@@H](CCC(=O)O)C(=O)O)cc1 [CMDA, N-4-[(2-chloroethyl)(2-mesyloxyethyl)amino]benzoyl-L-glutamic acid] | – | not sensitive to even the highest concentration | more sensitive | did not show any sensitivity | unaffected | -87 | complete cell death | -20 | minimal effect | greater than 80% | 125 | – | – | –
O=C(O)CC[C@H](NC(=O)Oc1ccc(N(CCI)CCI)cc1)C(=O)O [prodrug 2, N-(4-[bis(2-iodoethyl)amino]phenoxycarbonyl)-L-glutamic acid] | – | – | more sensitive | – | – | – | – | – | – | – | – | ~200 | ~200 | -10
